The subject of data set [1] is p-cMyc(S62), cMyc, p-AKT(S473), AKT, p-ERK(T202/Y204), ERK. The data set can be described thus: Target engagement Western blot in HCT116 cells. It counts as cell-based. The following applies: 10-80 μM, 3 hours. The method, then: For Western blot, the compounds were tested at 4 concentrations for 3 hours on 3 colon cancer cell lines. The compounds, concentrations, colon cancer cell line panel, and antibodies panel tested are the following: • CBG: 0 μM, 10 μM, 20 μM, 40 μM, and 80 μM. • Compound 1: 0 μM, 10 μM, 20 μM, 40 μM, and 80 μM. • Compound 2: 0 μM, 10 μM, 20 μM, 40 μM, and 80 μM. • Colon cancer cell line panel: SW620, HCT15, HCT116 • Antibodies panel: p-cMYC(S62), cMyc, p-AKT(S473), AKT, p-ERK(T202/Y204), ERK Methods
Evaluation of target engagement was performed to determine the expression of specific marker protein expression and underlying signaling pathways with Western blot.
Western blot. Whole cell extracts were prepared by incubating cell pellets in IP lysis buffer supplemented with protease and phosphatase inhibitors (Roche). Isolated protein was quantified by Pierce BCA Protein assay (ThermoFisher). Equal quantities of protein were separated by 4-15% SDS-PAGE electrophoresis gels and transferred onto nitrocellulose membranes. Membranes was blocked with 5% nonfat milk in Tris-buffered saline-Tween buffer. […]
(In general: A western blot detects proteins with antibodies after separation by electrophoresis.)

Data set [2] is described as follows: Hepatocyte stability and metabolite profiling. It counts as in vitro ADME. The following applies: cryopreserved hepatocytes in suspension; Mouse cryopreserved hepatocytes. The method, then:
The objective of this study was to investigate the stability of the test compound, CBG, in human, rat, dog, mouse, monkey and minipig cryopreserved hepatocytes. Follow-on metabolite profiling was performed.
CBG was incubated up to 2 hr with cryopreserved hepatocytes. Cryopreserved hepatocytes in suspension were added to test compound in supplemented media following pre-incubation to initiate the reaction and the reactions were stopped by organic solvent at the appropriate time points. The termination plates were centrifuged and sample supernatants were analysed using Cyprotex generic LC MS/MS conditions to generate intrinsic clearance values for CBG. Two control compounds for each species were included in the assay and if the values for these compounds were not within the specified limits the results were rejected and the experiment repeated.
Following the hepatocyte stability assay the samples were 59tilized for metabolite profiling using suitable high-resolution LC-MS/MS conditions. The 40 and 60 minute human samples, 20 and 120 minute rat samples, 10 and 20 minute dog and monkey samples, 20 and 60 minute mouse samples, and 40 and 120 minute minipig samples were compared against the 0 minute control sample to establish which and how many metabolites were formed. […]
The areas and percentages reported for the parent and metabolites were calculated using the XIC data. […]

In data set [3] the test system is lipopolysaccharide (LPS)-induced inflammation. Nature of the data set: Rat LPS model, serum pro-inflammatory cytokines. It counts as in vivo, Sprague Dawley rats. The following applies: oral, 4 days; 2 h after LPS. The method, then:
This assay was employed to determine the efficacies of CBG, compound 1, and compound 2 against lipopolysaccharide (LPS)-induced inflammation in Sprague Dawley rats.
Eight- to 10-week-old male rats were treated with CBG, Compound 1, and Compound 2, or a positive control (cyclosporin A) for four days prior to treatment with LPS. Twenty-eight (28) Sprague Dawley male rats, 8-10 weeks old, were used for this study. Animals were randomized by weight into one of 7 treatment groups as shown in Table 10 below and treated for 4 days with either vehicle control (Groups 1 and 2), Cyclosporin A (Neoral) (Group 3), CBG at 30 mg/kg (Group 4), Compound 1 at 31.5 mg/kg (Group 5), Compound 2 at 32.7 mg/kg (Group 6) or CBG at 30 mg/kg (intraperitoneal/IP; Group 7). Groups 1-6 were dosed for 4 days by oral gavage; group 7 was dosed for 4 days by IP injection. After the 4th injection, Groups 2-7 received a single IP injection of LPS at 5 mg/kg to induce inflammation. Body weight was recorded every other day starting on the day of or day prior to the first day of treatment. A terminal body weight was recorded. General health and clinical signs were recorded once daily. Blood was collected to isolate immune cells at 2 hours after the LPS injection. […]
Serum samples (N=82) were processed and shipped to Inotiv Boulder for analysis. […] The samples were analyzed for cytokine levels using the RECYTMAG-65K Luminex™ kit. […]

3 compounds from patent publication US11992497B2 (priority 2021, dated 2024) can be followed below.

SMILES strings stand for the structures.

Consider `CCCCCc1cc(O)c(C/C=C(\C)CCC=C(C)C)c(OC)c1` [Compound 1, (E)-2-(3,7-dimethylocta-2,6-dien-1-yl)-3-methoxy-5-pentylphenol], for which the “pAKT(S473) (Western blot)” value in data set [1] is “down-regulated pAKT(S473) in HCT116 cells with a dose effect”.

The term half-life denotes the time in which the quantity being followed falls by half. By hepatocyte CLint is commonly meant the capacity of the preparation to metabolise the compound, expressed as a volume cleared per time. On to `CCCCCc1cc(O)c(C/C=C(\C)CCC=C(C)C)c(O)c1` [CBG, cannabigerol], for which, in data set [2], the half-life is 42.2 min and the hepatocyte CLint amounted to 32.8 µL/min/1e6 cells. `CCCCCc1cc(OC)c(C/C=C(\C)CCC=C(C)C)c(OC)c1` [Compound 2, (E)-2-(3,7-dimethylocta-2,6-dien-1-yl)-1,3-dimethoxy-5-pentylbenzene]: the “reduction of IL-1B and IFNy relative to CBG (in words)” value in data set [3] is given as “equal to or better than CBG”.
